Results from patent US20140308244A1, “Combination Therapy for Treatment of Inflammatory Demyelinating Disease” (The Board of Trustees of the Leland Stanford Junior …, priority 2011, published 2014).

Columns and labels:
EAE = EAE relapse model: Rebif and/or Lisinopril treatment initiated at peak of disease; format: in vivo; conditions: Rebif daily 0.25 μg/mouse intraperitoneally, Lisinopril 1 mg/kg/day orally
Method: FIG. 2 is a graph of disease scores for EAE, when combination treatment of Rebif and Lisinopril is initiated at the peak of disease.
In this instance, Rebif was given daily (0.25 μg/mouse, intraperitoneally), and Lisinopril was given daily (1 mg/kg/day, orally).

[1] = test system: experimental autoimmune encephalomyelitis (EAE); conditions: mouse model for multiple sclerosis; Platten et al, 2009, PNAS 106:14948; cited from earlier work

NCCCC[C@H](N[C@@H](CCc1ccccc1)C(=O)O)C(=O)N1CCC[C@H]1C(=O)O [Lisinopril]
Average Relapse Rate (EAE): 0.7 | Average Relapse Rate (EAE; listed as PBS/Lisinopril): 0.70 | efficacy in treating EAE [1]: effective
